Blank lines part the entries; values can stand above or below the sequence they belong to.
Key:
[1] = target: anti-CD28 Fab (SEQ ID NOs: 696, 697); test: anti-CD28 Fab binding to peptides, ELISA; conditions: Table 24; anti-CD28 Fab
[2] = target: anti-CD28 scFv (disulfide) (SEQ ID NO: 10); test: anti-CD28 scFv (disulfide) binding to peptides, ELISA; conditions: Table 27
Description: Peptides were evaluated for their ability to bind to ant-CD28 Fab (SEQ ID NOs: 696.697) or anti-CD28 scFv (disulfide) (SEQ ID NO: 10) in a standard ELISA format as described above.

[3] = target: PSMA Fab (SEQ ID NOs: 19, 20); test: PSMA Fab binding to peptides, ELISA; conditions: PSMA Fab binding to biotinylated peptide, ELISA
Description: Peptides of Table 9 were evaluated for their ability to bind to PSMA Fab in a standard enzyme linked immunosorbent assay (ELISA) format. […] PSMA Fab diluted in buffer was then added to the peptide captured plates. Bound antibody was detected using a standard horse radish peroxidase conjugate secondary antibody.

[4] = target: PSMA Fab (SEQ ID NOs: 19, 20) binding to the PSMA antigen; test: Inhibition of PSMA Fab binding to PSMA by peptides, competition ELISA (incl. alanine scanning); design: key to Mutation Status: tolerant (T); somewhat tolerant (ST); intolerant (IT)
Description: PSMA Fab fixed at 0.3 nanomolar (nM) concentration was pre-incubated with 0-100 micromolar (μM) titrated peptides. After a short pre-incubation period, the mixture of titrated peptide with fixed PSMA Fab were added to the PSMA antigen coated plates. After a short incubation on the plates, bound PSMA Fab was detected with a standard horse radish peroxidase conjugated secondary antibody.
The tables also designate each alanine mutation as tolerant (T), somewhat tolerant (ST), or intolerant (IT) based on changes in binding inhibition ability relative to the non-mutated peptide. Cys-5 and Cys-11 of peptide-179 and peptide-180 were not mutated.

[5] = target: anti-CD28 scFv (SEQ ID NO: 9); test: Kinetic binding of anti-CD28 scFv to peptides, bio-layer interferometry (Octet RED96); conditions: Table 36; anti-CD28 scFv titrated 100-12.5 nM, 200 nM peptide loaded
Description: (§1) Briefly, streptavidin biosensors were loaded with biotinylated peptides and baselined in buffer. […] After a short association period, sensors were transferred into buffer and the dissociation of bound anti-CD28 scFv was measured. The timing and steps of the experiment are shown in the accompanying table. Association and dissociation signals were recorded in real time and analyzed using a 1:1 binding model within the instrument software. Analysis using a 1:1 binding model enabled the calculation of the on and off rate constants as well as affinity, KD.
as §1, with “KD. FIGS. 70A-70F illustrate kinetic binding of anti-CD28 scFv binding to peptides as measured by Octet. FIGS. 70G-70U illustrate kinetic binding of peptides to the anti-CD28 scFv as measured by Octet.” for “KD.”

[6] = Table 38, PSMA Fab fixed at 0.3 nM, peptide 0-100 μM
[7] = Table 41, alanine scanning of Peptide-180, change in binding inhibition relative to non-mutated peptide
[8] = Table 41, competition binding ELISA, alanine scanning sequences of Peptide-180
[9] = Table 40, alanine scanning of Peptide-179, change in binding inhibition relative to non-mutated peptide
[10] = Table 39, PSMA Fab fixed at 0.3 nM, peptide 0-100 μM
[11] = Table 40, competition binding ELISA, alanine scanning sequences of Peptide-179

Sequence of anti-CD28 Fab (SEQ ID NOs: 696, 697) (as listed by the source): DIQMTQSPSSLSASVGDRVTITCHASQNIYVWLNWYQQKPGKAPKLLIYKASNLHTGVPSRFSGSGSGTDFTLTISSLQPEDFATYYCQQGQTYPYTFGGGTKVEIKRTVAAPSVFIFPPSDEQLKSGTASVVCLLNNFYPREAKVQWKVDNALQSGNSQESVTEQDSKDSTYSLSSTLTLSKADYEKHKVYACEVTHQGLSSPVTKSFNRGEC
Sequence of anti-CD28 Fab (SEQ ID NOs: 696, 697) (as listed by the source): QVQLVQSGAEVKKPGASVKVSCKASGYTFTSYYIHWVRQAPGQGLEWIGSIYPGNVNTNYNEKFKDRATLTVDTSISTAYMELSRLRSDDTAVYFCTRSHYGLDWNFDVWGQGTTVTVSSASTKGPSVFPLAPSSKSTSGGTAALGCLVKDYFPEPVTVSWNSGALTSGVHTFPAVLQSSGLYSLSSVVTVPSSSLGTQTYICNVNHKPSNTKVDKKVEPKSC
Sequence of PSMA Fab (SEQ ID NOs: 19, 20) (as listed by the source): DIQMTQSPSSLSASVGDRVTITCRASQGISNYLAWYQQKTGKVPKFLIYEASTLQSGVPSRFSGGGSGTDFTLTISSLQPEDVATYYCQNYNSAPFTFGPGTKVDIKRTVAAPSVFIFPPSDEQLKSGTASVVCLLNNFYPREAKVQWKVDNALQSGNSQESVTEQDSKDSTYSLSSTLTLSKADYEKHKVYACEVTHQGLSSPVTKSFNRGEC
Sequence of PSMA Fab (SEQ ID NOs: 19, 20) (as listed by the source): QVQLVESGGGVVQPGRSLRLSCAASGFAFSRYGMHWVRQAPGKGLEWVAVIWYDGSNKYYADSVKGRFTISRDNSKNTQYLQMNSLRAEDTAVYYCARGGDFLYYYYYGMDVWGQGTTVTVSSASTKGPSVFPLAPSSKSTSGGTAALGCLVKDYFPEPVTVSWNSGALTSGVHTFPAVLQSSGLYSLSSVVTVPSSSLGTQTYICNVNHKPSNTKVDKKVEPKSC
Sequence of PSMA Fab (SEQ ID NOs: 19, 20) binding to the PSMA antigen (Q04609 whole entry partner): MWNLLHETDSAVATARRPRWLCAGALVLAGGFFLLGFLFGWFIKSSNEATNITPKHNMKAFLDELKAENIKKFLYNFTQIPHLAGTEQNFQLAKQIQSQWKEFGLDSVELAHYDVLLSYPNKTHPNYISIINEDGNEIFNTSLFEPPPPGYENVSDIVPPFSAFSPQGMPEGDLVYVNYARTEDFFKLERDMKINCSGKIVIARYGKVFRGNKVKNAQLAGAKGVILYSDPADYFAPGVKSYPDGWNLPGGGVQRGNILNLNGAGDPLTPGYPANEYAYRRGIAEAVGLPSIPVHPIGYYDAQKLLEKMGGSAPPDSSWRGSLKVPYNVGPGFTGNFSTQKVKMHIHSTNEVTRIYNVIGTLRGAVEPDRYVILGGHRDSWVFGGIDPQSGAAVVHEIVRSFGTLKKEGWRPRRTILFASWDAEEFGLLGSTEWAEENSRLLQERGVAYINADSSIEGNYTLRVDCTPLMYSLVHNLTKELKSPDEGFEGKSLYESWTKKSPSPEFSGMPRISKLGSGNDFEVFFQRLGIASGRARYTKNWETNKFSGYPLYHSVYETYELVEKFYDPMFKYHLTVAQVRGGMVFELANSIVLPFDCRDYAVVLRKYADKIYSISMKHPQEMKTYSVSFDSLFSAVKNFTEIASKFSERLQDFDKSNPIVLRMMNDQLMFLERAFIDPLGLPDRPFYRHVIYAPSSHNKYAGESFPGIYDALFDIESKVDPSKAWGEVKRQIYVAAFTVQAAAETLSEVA
Sequence of anti-CD28 scFv (disulfide) (SEQ ID NO: 10) (as listed by the source): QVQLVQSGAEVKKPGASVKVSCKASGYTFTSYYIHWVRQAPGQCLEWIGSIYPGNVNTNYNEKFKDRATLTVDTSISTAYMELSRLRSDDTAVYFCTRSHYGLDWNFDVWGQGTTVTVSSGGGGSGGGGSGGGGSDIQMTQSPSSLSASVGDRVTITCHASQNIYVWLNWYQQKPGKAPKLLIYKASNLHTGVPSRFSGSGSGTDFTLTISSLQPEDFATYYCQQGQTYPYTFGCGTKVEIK
Sequence of anti-CD28 scFv (SEQ ID NO: 9) (as listed by the source): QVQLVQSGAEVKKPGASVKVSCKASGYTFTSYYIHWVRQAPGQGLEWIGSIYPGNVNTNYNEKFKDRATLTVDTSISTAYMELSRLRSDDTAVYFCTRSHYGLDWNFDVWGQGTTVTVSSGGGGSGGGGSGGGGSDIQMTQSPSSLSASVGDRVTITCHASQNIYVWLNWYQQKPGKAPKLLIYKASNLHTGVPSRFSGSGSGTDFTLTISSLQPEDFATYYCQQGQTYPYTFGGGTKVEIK

Sequence: ACDTYFAGMINECF [Peptide-79]
- EC50 [1]: 97 nM
- EC50 [2]: 73.2 nM

- EC50 ([3]; Table 37): > 1000 nM
Sequence: ACHSLVLKHHLQKC [Peptide-176]

- EC50 ([3]; Table 37): > 1000 nM
Sequence: DCFYAADIHWNYCN [Peptide-157]

Sequence: DCPWLSGFSRPLLC [Peptide-93]
- EC50 [1]: > 1000 nM
- EC50 [2]: > 1000 nM

Sequence: DCWWMFESYPGRCI [Peptide-86]
- EC50 [1]: > 1000 nM
- EC50 [2]: > 1000 nM

Sequence: ECHWSMWAVGHACF [Peptide-83]
- EC50 [1]: > 1000 nM
- EC50 [2]: > 1000 nM

- EC50 ([3]; Table 37): > 1000 nM
Sequence: EGCLTLVDGRAWCW [Peptide-173]

- EC50 ([3]; Table 37): > 1000 nM
Sequence: FCGWMDGDVFWFCG [Peptide-171]

- EC50 ([3]; Table 37): > 1000 nM
Sequence: FCNWVDGDVWVVCK [Peptide-172]

- EC50 ([3]; Table 37): > 1000 nM
Sequence: FCQWIEATNAWLCY [Peptide-170]

- EC50 ([3]; Table 37): > 1000 nM
Sequence: FGHCAGSPVFCAYW [Peptide-168]

Sequence: FMCLPQNPHPLCFK [Peptide-77]
- EC50 [1]: > 1000 nM
- EC50 [2]: > 1000 nM

- EC50 ([3]; Table 38): > 3000 nM
Sequence: FVCWTFGEHIKVCR [Peptide-186]
- IC50 [4, 6]: > 100000 nM

Sequence: GCQYPWAFDAMSCP [Peptide-80]
- EC50 [1]: > 1000 nM
- EC50 [2]: > 1000 nM

- EC50 ([3]; Table 37): > 1000 nM
Sequence: HCKFHDYHSWYMCY [Peptide-175]

- EC50 ([3]; Table 38): > 3000 nM
Sequence: HCLGPALGPVDGDC [Peptide-189]
- IC50 [4, 6]: > 100000 nM

- EC50 ([3]; Table 37): > 1000 nM
Sequence: HLFCWEGSDRCAWV [Peptide-165]

Sequence: IAVLCQANWMCAGF [Peptide-255]
- Mutation Status [4, 7]: IT
- IC50 [4, 8]: > 100000 nM

Sequence: IAVLCQPAWMCAGF [Peptide-256]
- Mutation Status [4, 7]: T

Sequence: IAVLCQPNAMCAGF [Peptide-257]
- Mutation Status [4, 7]: IT
- IC50 [4, 8]: > 100000 nM

Sequence: IAVLCQPNWACAGF [Peptide-258]
- Mutation Status [4, 7]: IT
- IC50 [4, 8]: > 100000 nM

Sequence: IAVLCQPNWMCAAF [Peptide-259]
- Mutation Status [4, 7]: ST

Sequence: IAVLCQPNWMCAGA [Peptide-260]
- Mutation Status [4, 7]: ST

- Binding EC50 ([3]; Table 37): high background
Sequence: ICQWIGATNAWVCY [Peptide-164]
- IC50 ([4]; Table 37, PSMA Fab fixed at 0.3 nM, peptide 0-100 μM): > 100000 nM

- EC50 ([3]; Table 38): > 3000 nM
Sequence: IECAYMTDQRFWCW [Peptide-188]

- EC50 ([3]; Table 38): > 3000 nM
Sequence: ILCGLYEALVSECG [Peptide-187]
- IC50 [4, 6]: > 100000 nM

- EC50 ([3]; Table 37): > 1000 nM
Sequence: IRCVGEGHDLVCIF [Peptide-162]

- EC50 ([3]; Table 38): > 3000 nM
Sequence: IRCVGEGHDLVCIF [Peptide-184]
- IC50 [4, 6]: > 100000 nM

Sequence: LAKWCTPRWMCAAE [Peptide-242]
- Mutation Status [4, 9]: T

Sequence: LCEWWTSHVDAWCA [Peptide-213]
- IC50 [4, 10]: > 100000 nM

Sequence: LCQWYPKFHWMDCD [Peptide-210]
- IC50 [4, 10]: > 100000 nM

Sequence: LMKACTPRWMCAAE [Peptide-244]
- Mutation Status [4, 9]: ST

Sequence: LMKWCAPRWMCAAE [Peptide-245]
- Mutation Status [4, 9]: ST

Sequence: LMKWCTARWMCAAE [Peptide-246]
- Mutation Status [4, 9]: IT
- IC50 [4, 11]: > 100000 nM

Sequence: LMKWCTPAWMCAAE [Peptide-247]
- Mutation Status [4, 9]: T

Sequence: LMKWCTPRAMCAAE [Peptide-248]
- Mutation Status [4, 9]: IT
- IC50 [4, 11]: > 100000 nM

Sequence: LMKWCTPRWACAAE [Peptide-249]
- Mutation Status [4, 9]: IT
- IC50 [4, 11]: > 100000 nM

Sequence: LMKWCTPRWMC [Peptide-250]
- Mutation Status [4, 9]: T
- IC50 [4, 11]: 6640 nM

Sequence: MCFVTGWGVPDDCN [Peptide-208]
- IC50 [4, 10]: > 100000 nM

Sequence: MDWCPRDLWVHCFA [Peptide-41]
- EC50 [1]: 490 nM
- EC50 [2]: 98.5 nM
- Kd [5]: 42.3 nM
- kdis [5]: 0.00154 s⁻¹
- kon [5]: 36400 M⁻¹ s⁻¹

- EC50 ([3]; Table 37): > 1000 nM
Sequence: MEYCSFHRFTCVLW [Peptide-174]
